In patent US9884813B1, “Pharmaceutically acceptable salts of B-guanidinopropionic acid with improved properties and uses thereof” (Rgenix, Inc., priority 2017, dated 2018):
Values joined by “and” are separate entries in the source; they are usually repeats but may differ in a detail not shown here. Equal entries are not always repeated. “Also recorded” adds a separate entry of the source.

Tests used:
[1] = Experiments on lyophilized 2:1 fumarate polymorph (Pattern 7C); type: physicochemical
Protocol: 1 g of 2:1 β-GPA fumarate was dissolved in 10 mL of water at 50° C. in a round bottom flask. The round bottom flask was placed in the dry ice/acetone cooling bath (−78° C.) until the sample solidified followed by lyophilization for 48 hours. A white solid was obtained which was analyzed by XRPD, DSC and ^1H-NMR. Sample ID: 2162-84-1.
To confirm the above hypothesis the following experiments (Table 25) were performed on the lyophilized sample (Pattern 7C): […]

[2] = Dynamic vapor sorption (DVS) with XRPD of the post-DVS sample; type: physicochemical; settings: for solid form by XRPD after the DVS experiment: post DVS sample
Protocol: Samples were analyzed using an Aquadyne DVS-2 gravimetric water sorption analyzer. The relative humidity was adjusted between 2-95% and the weight of the sample was continuously monitored and recorded.
[…]: β-GPA maleate (1:1) Form II, β-GPA fumarate (1:1), β-GPA maleate (2:1), β-GPA succinate (2:1) and β-GPA oxalate (1:1) were analyzed by DVS experiment followed by XRPD analysis of the sample at the end of the experiment.
Sample 2162-64-1 was analyzed by DVS in triplicate and the post DVS samples were characterized by XRPD to identify the form at the end of the experiment.

[3] = Solid form stability under stressed conditions (wet, dry, high humidity) by XRPD; type: physicochemical
Protocol: The solid form stability of each salt was studied by XRPD under stressed conditions: wet, dry (45° C. under vacuum) and high humidity (RH >95%).

[4] = Solid form stability of salts in different solvents (slurry, XRPD); type: physicochemical; settings: 48 hours, room temperature
Protocol: Three salts were studied for solid form stability in water (disproportionation test), methanol, acetonitrile, and acetone:water (9:1) for 48 hours at room temperature.

[5] = Solid form stability at 40° C. and 75% humidity; type: physicochemical; settings: for solid form stability (XRPD): 40° C. and 75% RH for seven days
Protocol: Solid form stability studies of β-GPA fumarate, succinate, and oxalate were carried out at 40° C. and 75% RH for seven days. Around 30 mg of the salts were placed in 4 mL vials which were placed in a saturated solution of sodium chloride (2 mL) with lids closed at 40° C. […]

Bulk and tapped density = type: physicochemical
Protocol: The bulk density of β-GPA oxalate (Pattern 18 B), succinate (Pattern 15A), and fumarate (Pattern 7A) were determined by pouring in a known amount of salt (g) into a measuring cylinder. The volume (Vi) occupied by the salt was recorded and the bulk density (ρB) was determined using equation 1. ρB=g/Vi (1)
The tapped densities of the salts were determined using a Tap density analyzer. A known amount of salt was poured (g) into a measuring cylinder and the initial volume was recorded and tapped using a Tap density analyzer. The final volume (Vf) after tapping was recorded and the tapped density (ρT) was calculated by using equation 2. ρT=g/Vf (2)

[6] = Carr's index and Hausner ratio (predicted flowability); type: physicochemical; settings: for Carr's index / Hausner ratio: calculated from bulk and tapped volumes; for Flow character: scale of Table 6 (Carr's index)
From the text: The flow properties of β-GPA are sub-optimal. The bulk density is 0.389 g/cc and the tapped density is 0.627 g/cc. These measurements can be used to calculate the Carr's index and Hausner ratio for a substance. The Carr's index and Hausner ratio are indicators of flowability of a powder. As known in the art, e.g., as described in Carr R. L. Chem. Eng. 1965, 72, 163-168, the relationship to flowability of a powder to the Carr's index and Hausner ratio is based on the scale shown in Table 6 below.
Carr's index or Carr's compressibility index (C) is an indication of the compressibility of a powder. It can be calculated using the equation below: Carr's index (C)=100(Vi−Vf)/Vi (3) A Carr's index greater than 25 is considered to be an indication of poor flowability while a value below 15 is an indication of good flowability.
The Hausner ratio is a number that is correlated to the flowability of a powder or granular material. It is calculated by using the equation below: Hausner ratio=Vi/Vf (4)

[7] = Flowability measurement using Hanson Flodex unit; type: physicochemical; settings: for flow character from the experimental data: summary of density and Flodex measurements
From the text: Method: A cylindrical vessel is secured to the stand and above that a funnel is also secured such that the bottom of the funnel is close to the vessel. A powder load of ≈50-60 g is then poured through the funnel into the middle of the cylinder. The lever device is pulled to open the hole in the disk quickly and without vibration. If a powder slowly flows through the small-diameter holes, leaving a cavity shaped like an upside-down, truncated cone, the test is considered positive. If a powder flocculates in bulk and falls abruptly, forming a cylindrical cavity, the test is considered negative. […] If the experiment is negative, the powder is tested again with a disk having a larger hole.

[8] = Roller compaction feasibility (slugs, capsule fill)
Protocol: Roller compaction feasibility was performed by producing slugs using a single station hand press then carefully hand milling those slugs so that all granules were small enough to pass through a size US 18 mesh. These granules were then filled into size 0 capsules by both the free flow and tamp method. A total of N=5 capsules were filled for each lot for each method. The average net fill weight results are given below in […]. The same issue was not seen when compressing the succinate salt form of β-GPA. Slugs produced around 1500 PSI produced slugs hard enough to be tested for hardness. The resulting slug parameters can be seen in Table 33.

[9] = Compression profile evaluation (tabletability); type: physicochemical
Protocol: Compression profiling was also performed on both the free base and the salt form of the API. A standard formulation containing plastic diluent, brittle diluent, disintegrant and lubricant was evaluated at a loading of 25% and 50% API. The diluent level was adjusted accordingly, but the ratio of plastic to brittle filler was set a 1:1. It was decided to use a representative tablet formulation to perform compression profiling to mitigate the cohesion and sticking issues seen in the free base and the salt form during the roller compaction feasibility evaluation. Table 37 details the formulation compositions tested.
These blends were then compressed into 100 mg compacts using 0.25-inch flat faced tooling at increasing compaction pressures. A total of N=3 compacts were produced at each compaction pressure and were measured for weight, thickness and hardness. The compression stresses used were calculated by dividing the force applied to the compact by the surface area of the 0.25 in flat faced tooling. The tensile strength of the compacts was calculated using the equations derived for flat faced tablets. For each formulation, a tabletability (tensile strength vs. compression pressure) was generated. For the purposes of this study the tabletability profile was examined to determine the compaction pressure required in order to produce a tablet of acceptable tensile strength. Historically a tablet with a tensile strength of 2.0 Mpa is sufficient to both withstand friability and to not impact disintegration and dissolution.

[10] = Solid form stability of salts in different solvents (slurry, XRPD); type: physicochemical; settings: water, 6 hours, room temperature
[11] = Carr's index and Hausner ratio (predicted flowability); type: physicochemical; settings: Table 18, scale of Table 17
[12] = Dynamic vapor sorption (DVS) with XRPD of the post-DVS sample; type: physicochemical; settings: relative humidity between 0-95 percent
[13] = Average of 5 slugs, average Compression Force 1600.00 PSI (28.67 MPa)
[14] = slug, Compression Force 1500 PSI, Compression Stress 27 MPa, listed as β-Guanidinopropionic Acid Succinate Salt
[15] = slug, Compression Force 2000 PSI, Compression Stress 36 MPa

N=C(N)NCCC(=O)O.N=C(N)NCCC(=O)O.O=C(O)/C=C/C(=O)O [Pattern 7C]
stability of the polymorph [1]: unstable

N=C(N)NCCC(=O)O.N=C(N)NCCC(=O)O.O=C(O)CCC(=O)O [β-GPA succinate (2:1)]
solid form by XRPD after the DVS experiment [2]: retained their XRPD | solid form by XRPD after the DVS experiment ([2]; listed as 2:1 succinate salt): no form change | solid form by XRPD after the DVS experiment ([2]; listed as 2:1 β-GPA succinate): no form change | Dry_XRPD pattern ([3]; dry (45° C. under vacuum)): Pattern 15A | stability in dry conditions ([3]; dry conditions): stable | Humid_XRPD pattern ([3]; high humidity (RH >95%)): Pattern 15A | stability under high humidity conditions ([3]; high humidity conditions): stable | Wet_XRPD pattern ([3]; wet): Pattern 15A | XRPD pattern after slurry ([4]; acetone:water (9:1)): presence of β-GPA | XRPD pattern after slurry ([4]; acetonitrile): retain its original form | XRPD pattern after slurry ([4]; acetonitrile, listed as 2:1 β-GPA succinate): retain its XRPD pattern | XRPD pattern after slurry ([4]; methanol): retain its original form | XRPD pattern after slurry ([4]; methanol, listed as 2:1 β-GPA succinate): retain its XRPD pattern | solid form stability (XRPD) [5]: retained their original XRPD pattern; also recorded: stable | solid form stability (XRPD) ([5]; listed as 2:1 succinate salt): stable | Bulk density (Bulk and tapped density): 0.405 g/cc | Tapped density (Bulk and tapped density): 0.472 g/cc | Carr's index [6]: 14.3 | Hausner ratio [6]: 1.167 | Flow character ([6]; predicted): Good (11-15) | Did solid pass? ([7]; Disc pore size 5 mm): No | Did solid pass? ([7]; Disc pore size 6 mm): No | Did solid pass? ([7]; Disc pore size 7 mm): Yes | Did solid pass? ([7]; Disc pore size 8 mm): Yes | Did solid pass? ([7]; Disc pore size 10 mm): Yes | Did solid pass? ([7]; Disc pore size 18 mm): Yes | Did solid pass? ([7]; Disc pore size 20 mm): Yes | Did solid pass? ([7]; Disc pore size 22 mm): Yes | Did solid pass? ([7]; Disc pore size 24 mm): Yes | flow character from the experimental data [7]: good | Calculated Solid Fraction [8, 13]: 0.80 | Tablet Hardness [8, 13]: 4.86 kp | Tensile Strength [8, 13]: 0.34 MPa | Calculated Solid Fraction ([8]; slug, Compression Force 1500 PSI, Compression Stress 27 MPa): 0.79 | Tablet Hardness [8, 14]: 5.1 kp and 3.7 kp and 4.4 kp and 4.3 kp | Tensile Strength [8, 14]: 0.35 MPa and 0.25 MPa and 0.30 MPa and 0.29 MPa | Calculated Solid Fraction [8, 15]: 0.85 | Tablet Hardness [8, 15]: 6.8 kp | Tensile Strength [8, 15]: 0.50 MPa | compaction force required to produce a tablet of 2.0 Mpa tensile strength ([9]; 25% API loading formulation): 22.7 kN | compression stress (compaction pressure) required to produce a tablet of 2.0 Mpa tensile strength ([9]; 25% API loading formulation): 150 Mpa | compaction force required to produce a tablet of 2.0 Mpa tensile strength ([9]; 50% API loading formulation): ~34.8 kN | compression stress (compaction pressure) required to produce a tablet of 2.0 Mpa tensile strength ([9]; 50% API loading formulation): ~230 Mpa | XRPD pattern after slurry [10]: two peaks from β-GPA | XRPD pattern after slurry ([10]; listed as 2:1 β-GPA succinate): started showing up peaks from β-GPA | Flow character [11]: Good (11-15)

N=C(N)NCCC(=O)O [β-GPA, β-Guanidinopropionic acid, reference compound]
water uptake ([2]; 80% humidity at 25° C.): ~0.3% | solid form by XRPD after the DVS experiment [2]: No change in the solid form | degradation ([5]; 40° C. at 75% humidity after 4 weeks): No degradation was observed | Bulk density (Bulk and tapped density): 0.389 g/cc | Tapped density (Bulk and tapped density): 0.627 g/cc | Carr's index [6]: 37.9 | Hausner ratio [6]: 1.610 | Flow character ([6]; predicted): Very poor (32-37) | Flow character by Hausner ratio ([6]; predicted, scale of Table 6 (Hausner ratio)): Very very poor (>1.60) | Did solid pass? ([7]; Disc pore size 18 mm): No | Did solid pass? ([7]; Disc pore size 20 mm): No | Did solid pass? ([7]; Disc pore size 28 mm): No | Did solid pass? ([7]; Disc pore size 30 mm): No | Did solid pass? ([7]; Disc pore size 34 mm): Yes | flow character from the experimental data [7]: poor | calculated solid fraction of slugs ([8]; slugs produced using up to 2000 psi): 74% | compression stress (compaction pressure) required to produce a tablet of 2.0 Mpa tensile strength ([9]; 25% API loading formulation): roughly 235 Mpa | compression stress (compaction pressure) required to produce a tablet of 2.0 Mpa tensile strength ([9]; 50% API loading formulation): incapable of reaching a tablet with 2.0 Mpa | moisture absorbed and desorbed [12]: around 0.1% | Flow character [11]: Very very poor (>38)
